From patent publication US20230064363A1, “MATURATION OF SPERMATOGONIAL CELLS IN VITRO BT GROWTH FACTORS AND HORMONES” (B.G. Negev Technologies & Applications Ltd., at Ben-Gurion …, priority 2020, published 2023) come the findings set out here.

Data set [1] relates to spermatogonial cells isolated from CP-treated immature mice. Nature of the data set: In vitro culture in MCS of seminiferous tubule cells from CP-treated immature mice; marker-positive cells by immunofluorescence staining. The format is cell-based. Particulars: for ACROSIN (meiotic/postmeiotic marker), percentage of stained cells / BOULE (meiotic marker), percentage of stained cells / C-KIT (pre-meiotic marker), percentage of stained cells / CD9 (pre-meiotic marker), percentage of stained cells / CREM (meiotic marker), percentage of stained cells / GFR-a (pre-meiotic marker), percentage of stained cells / VASA (pre-meiotic marker), percentage of stained cells / a-6-INTG (pre-meiotic marker), percentage of stained cells: after 4-5 weeks culture in MCS, FSH 7.5 IU/ml, IL-1α 20 pg/ml or TNF-α 20 pg/ml from the beginning, testosterone 10^−7 M at the last week.

In data set [2] the test system is isolated seminiferous tubule cells. Nature of the data set: Isolated seminiferous tubule cells of 7-days-old mice cultured in methylcellulose culture system (MCS); marker-positive cells by immunofluorescence staining. The format is cell-based.
For data set [3] the test system is unchanged. Nature of the data set: Isolated seminiferous tubule cells of 7-days-old mice cultured in MCS; premeiotic and meiotic/postmeiotic marker RNA by qPCR. The format is cell-based. Particulars: GM-CSF 0.1 or 1 ng/ml for 4 weeks; testosterone 10^−7 M added after 2 weeks in control medium for additional 2 weeks; after 4 weeks of culture; compared to control cultured cells. In general terms: Real-time PCR tracks product formation cycle by cycle.

A further data set concerns Sertoli cells. Particulars: cells isolated from seminiferous tubules ten days post-treatment, compared to control.
The mark [4] stands for this setting: compared to cells cultured in control medium.
Setting [5] is: GM-CSF 0.1 or 1 ng/ml for 4 weeks, testosterone 10^−7 M added after 2 weeks in control medium for additional 2 weeks, after 4 weeks of culture, compared to control cultured cells.
Setting [6] is: factor from the beginning of the culture (IL-1α 10 pg/ml; IL-1β or IL-6 1, 10 or 100 pg/ml), after 4 weeks of culture, compared to control medium.
Setting [7] is: 10-days post last CP-injection, compared to control, p<0.001.
Setting [8] is: 10-days post the last CP-injection, compared to control, p<0.001.
[9] abbreviates: CP 100 mg/kg i.p. once a week for 3 weeks, day 10 post-treatment, compared to control, p<0.001.
The mark [10] stands for this setting: IL-1α 10 pg/ml added only after 2 weeks of the culture for additional 2 weeks, compared to control medium.

Where two headings read alike, the source gives them in different places.

Method for Sertoli cells: Tubular Cell Isolation—The procedure was performed under sterile conditions. Testes from both control and CP-treated mice were removed and tunica albuginea was gently removed by scalpel knife. Seminiferous tubules (STs) were immersed with PBS and thereafter transported through a syringe 2-3 times to complete the mechanical digestion. Thereafter the STs were enzymatically digested as described by AbuMadigem et al. [International Journal of Molecular Sciences 19, 3804 (2018)].
Gene expression—RNA was extracted from isolated testicular cells, from control or CP-treated immature mice, by GenElute Mannalian Total RNA Miniprep Kit [Sigma, St. Louis, USA). cDNA synthesis was performed according to the qScript cDNA Synthesis Kit (Quantabio, Beverly, Mass., USA) and qPCR was performed using specific primers for each examined marker: ABP (forward: [sequence] (SEQ ID NO: 1); reverse: [sequence] (SEQ ID NO:2); product size, 237 bp), INHIBIN B (forward: [sequence] (SEQ ID NO:3); reverse: [sequence] (SEQ ID NO:4); product size, 209 bp), FSH-R (forward: [sequence] […] (SEQ ID NO: 6); product size, 206 bp), Transferrin (forward: [sequence] (SEQ ID NO:7); reverse: [sequence] (SEQ ID NO:8); product size: 231 bp), Housekeeping gene GAPDH (forward: [sequence] (SEQ ID NO:9); reverse: [sequence] (SEQ ID NO:10); product size, 450 bp). qPCR reaction was performed following the 2× qPCRBIO SyGreen Blue Mix Hi-ROX (PCR Biosystems Ltd, Aztec House, 397-405 Archway Road, London, UK) protocol and was performed using the LightCycler 96 real-time PCR machine (Roche, Roche Diagnostics Corporation, Roche CustomBiotech, Indianapolis, Ind., USA). Program: preincubation 10 minutes at 95° C., 40 cycles of 15 seconds at 95° C., 15 seconds at 60° C. and 10 seconds at 72° C. Melting cycle: 10 seconds at 95° C., 60 seconds at 65° C., and 1 second at 97° C. PCR products were identified by the melting curve. The “threshold cycle” (Ct) value for each transcript was identified. The relative quantity of gene expression was analyzed by the 2° method. Results were expressed as the fold of increase related to the GAPDH of the same examined sample and relatively compared to control treatment group.

As to `C[C@]12CC[C@H]3[C@@H](CCC4=CC(=O)CC[C@@]43C)[C@@H]1CC[C@@H]2O` [testosterone, reference compound], in data set [1], the “ACROSIN (meiotic/postmeiotic marker), percentage of stained cells” value worked out at 55.53%; the “BOULE (meiotic marker), percentage of stained cells” value (“BOULE (meiotic marker), percentage” for short) is given as 22.15%; the “C-KIT (pre-meiotic marker), percentage of stained cells” value (“C-KIT (pre-meiotic marker), percentage” for short) worked out at 11.13%; the “CD9 (pre-meiotic marker), percentage of stained cells” value (“CD9 (pre-meiotic marker), percentage” for short) turned out to be 42.63%. In addition, in data set [1], the “CREM (meiotic marker), percentage of stained cells” value (shortened to “CREM (meiotic marker), percentage”) turned out to be 38.42%; the “GFR-a (pre-meiotic marker), percentage of stained cells” value (“GFR-a (pre-meiotic marker), percentage” for short) stood at 24.03%; the “VASA (pre-meiotic marker), percentage of stained cells” value (“VASA (pre-meiotic marker), percentage” for short) is reported as 23.76%; the “a-6-INTG (pre-meiotic marker), percentage of stained cells” value (“a-6-INTG … percentage of stained cells” below) was found to be 12.23%. In addition, in data set [1] (setting [4]), the “percentage of the meiotic/postmeiotic ACROSIN positive cells” value is recorded as “significantly increased”; the “percentage of the other examined premeiotic and meiotic (or meiotic/postmeiotic) cells developed in MCS” value is on record as “without any significant effect”; the “percentage of the premeiotic CD9 positive cells” value is “significantly increased”.
Regarding GM-CSF, in data set [2] (setting [5]), the “percentage of VASA positive cells” value was “significantly increased”, the “percentage of acrosin positive cells” value is listed as “did not significantly increase” and the “percentages of BOULE positive cells” value is given as “significantly increased”. In data set [3], the “BOULE expression levels (qPCR)” value is “significantly increased”, the “PLZF expression level (qPCR)” value was “significantly increased”, the “VASA expression level (qPCR)” value was “significantly increased” and the “acrosin expression levels (qPCR)” value was “did not significantly increase”.
For the molecule “IL-6: interleukin-6 cytokine (PeproTech), 1, 10 or 100 pg/ml”, in data set [2] (setting [6]), the “percentages of BOULE positive cells” value is given as “significantly increased”, the “percentages of VASA positive cells” value is “significantly increased” and the “percentages of acrosin positive cells” value was “significantly increased”.
As to TNFα, in data set [1], the “ACROSIN (meiotic/postmeiotic marker), percentage of stained cells” value amounted to 36.4%; the “BOULE (meiotic marker), percentage” value came out at 21.1%; the “C-KIT (pre-meiotic marker), percentage” value is 29.05%; the “CD9 (pre-meiotic marker), percentage” value came to 33.52%. Further, in data set [1], the “CREM (meiotic marker), percentage” value worked out at 36.1%; the “GFR-a (pre-meiotic marker), percentage” value was 25.3%; the “VASA (pre-meiotic marker), percentage” value came to 31.67%; the “a-6-INTG … percentage of stained cells” value turned out to be 25.76%. In data set [1] (setting [4]), the “percentage of the other examined premeiotic and meiotic (or meiotic/postmeiotic) cells developed in MCS” value is on record as “without any significant effect”; the “percentage of the premeiotic CD9 positive cells” value is recorded as “significantly increased”.
Turning to `O=P1(N(CCCl)CCCl)NCCCO1` (centres unmarked) [CP, cyclophosphamide], in the data set with testes of immature mice (setting [7]), the “number of Sertoli cells (vimentin)” value is reported as “significantly reduced” and the “number of peritubular cells (αSMA)” value is “significantly reduced”. In the data set with testes of immature mice (setting [8]), the “number of cells stained positive to the meiotic/postmeiotic marker acrosin” value was “significantly reduced”, the “number of meiotic cells stained positive to BOULE” value was “significantly reduced”, the “number of meiotic cells stained positive to CREM” value is on record as “significantly reduced” and the “number of premeiotic cells stained positive to CD9” value was “significantly reduced”. For the same molecule, in the data set on testes of immature mice (setting [8]), the “number of premeiotic cells stained positive to VASA” value is recorded as “significantly reduced”, the “number of premeiotic cells stained positive to c-KIT” value is reported as “significantly reduced” and the “number of premeiotic cells stained positive to α-6 INTEGRIN” value is listed as “significantly reduced”. Further, the testicular weight result in the data set with testes of immature mice (CP 100 mg/kg i.p. once a week for 3 weeks, all time points during 5 weeks after the last injection, compared to control mice, p<0.001) is on record as “significantly decreased”. Besides, the seminiferous tubules histology entry in the data set with testes of immature mice (CP 100 mg/kg i.p. once a week for 3 weeks, day 10 post-treatment, compared to control) was “significantly impaired”. For the same molecule, in the data set with testes of immature mice (setting [9]), the testicular cell count entry is recorded as “decreased” and the testicular weight entry is recorded as “decreased”. In the data set with testes of immature mice (CP 100 mg/kg i.p. once a week for 3 weeks, during 3 weeks after the last injection), the seminiferous tubules histology result is listed as “impaired”. Also, the “time of most severe damage for the seminiferous tubules” value in the data set with testes of immature mice (CP 100 mg/kg i.p. once a week for 3 weeks, weeks post-treatment) is on record as 1-2 weeks. In addition, the “expression levels of androgen binding protein (ABP)” value with Sertoli cells is listed as “did not significantly affect”. For the same molecule, the “expression levels of transferrin” value in the data set on Sertoli cells (p<0.01) is given as “significantly increased”. In the data set with Sertoli cells (p<0.05), the “expression levels of FSH-receptor (FSH-R)” value is listed as “significantly increased” and the “expression levels of inhibin” value is given as “significantly increased”.
As to “IL-1β: interleukin 1 beta cytokine (PeproTech), 1, 10 or 100 pg/ml”, in data set [2] (setting [6]), the “percentages of BOULE positive cells” value is recorded as “significantly increased”, the “percentages of VASA positive cells” value was “significantly increased” and the “percentages of acrosin positive cells” value was “significantly increased”.

B1: IL-1α: interleukin 1 alpha cytokine (BioLegend 20 pg/ml; PeproTech 10 pg/ml) (protein, UniProt P01583 113-271, looked up)
Interleukin-1 alpha: SAPFSFLSNVKYNFMRIIKYEFILNDALNQSIIRANDQYLTAAALHNLDEAVKFDMGAYKSSKDDAKITVILRISKTQLYVTAQDEDQPVLLKEMPEIPKTITGSETNLLFFWETHGTKNYFTSVAHPNLFIATKQDYWVCLAGGPPSITDFQILENQA
Consider B1, for which, in data set [2] (setting [10]), the “percentages of BOULE positive cells” value is “increased the percentages of BOULE positive cells, but not significantly”; the “percentages of VASA positive cells” value is given as “increased the percentages of VASA positive cells, but not significantly”; the “percentages of acrosin cells” value is on record as “increased the percentages of acrosin cells, but not significantly”. Moreover, in data set [2] (setting [6]), the “percentages of BOULE positive cells” value is on record as “significantly increased”, the “percentages of VASA positive cells” value is on record as “significantly increased” and the “percentages of acrosin positive cells” value is reported as “significantly increased”. In data set [1], the “ACROSIN (meiotic/postmeiotic marker), percentage of stained cells” value was found to be 34.27%; the “BOULE (meiotic marker), percentage” value was 27.16%; the “C-KIT (pre-meiotic marker), percentage” value worked out at 16.5%; the “CD9 (pre-meiotic marker), percentage” value came out at 23.4%. Moreover, in data set [1], the “CREM (meiotic marker), percentage” value is given as 30.45 + %; the “GFR-a (pre-meiotic marker), percentage” value was found to be 22.77%; the “VASA (pre-meiotic marker), percentage” value was 20.8%; the “a-6-INTG … percentage of stained cells” value came out at 17.5%. Moreover, the “percentage of premeiotic, meiotic and meiotic/postmeiotic examined cells developed in MCS” value in data set [1] (setting [4]) is recorded as “did not show any significant effect”.
